Data taken from US7183320B2, “Benzoylsulfonamides and sulfonylbenzamidines for use as antitumour agents” (Eli Lilly and Company, priority 2002, dated 2007).

What was measured:
[1] = tested on: HUMAN PROSTATE LNCaP; test: Early stage human prostate LNCaP xenograft (Table VII); type: in vivo; conditions: total dose 840 mg/kg: 140 mg/kg/injection IV on days 3, 5, 7, 9, 10, and 11, Balb/C SCID female mice
Source text: (§1) Conventional Murine Tumor and Human Tumor Xenouraft Assays
(§2) Inhibition of tumors transplanted into mice is an accepted procedure for studying the efficacy of antitumor agents (Corbett, et al., In vivo Methods for Screening and Preclinical Testing; Use of rodent solid tumors for drug discovery., In: Anticancer Drug Development Guide: Preclinical Screening, Clinical Trials, and Approval, B. Teicher (ed), Humana Press Inc., Totowa, N.J., Chapter 5, pages 75–99 (1997); (Corbett, et al., Int., J. Parmacog., 33, Supplement, 102–122 (1995)). Murine tumors or human xenographs were implanted essentially as described by Corbett in In vivo Methods for Screening and Preclimical Testing; Use of rodent solid tumors for drug discovery. Briefly, the murine tumor or human xenograph was implanted subcutaneously using either 12-gauge trocar implants or counted number of cells. The location for the trocar insertion is midway between the axillary and inguinal region along the side of the mouse. The trocar is slipped approximately ¾ of an inch subcutaneously up toward the axilla before discharging the tumor fragment, and pinching the skin as the trocar is removed., Alternatively, human tumor cells prepared from a […] of donor tumors (5×10^6 cells) were implanted subcutaneously in a hind-leg of a male or female nude mouse (Charles River). Either a test compound in vehicle or vehicle alone was administered by intravenous bolus injection (iv), intraperitoneal injection (ip), or oral gavage (po). Each treatment group, as well as a group of untreated control animals, consisted of five animals per group in each experiment. Subcutaneous tumor response was monitored by tumor volume measurement performed twice each week over the course of the experiment (60–120 days). Body weights were taken as a general measure of toxicity. The subcutaneous tumor data were analyzed by determining the median tumor weight for each treatment group over the course of the experiment and calculating the tumor growth delay as the difference in days for the treatment versus the control tumors to reach a volume of either 500 or 1000 mm^3.
(§3) The compound of Example 110 was tested against a variety of murine and human tumors substantially as described supra. The parameters measured in each experiment are summarized in the following paragraphs. • Tumor Weight(mg)=(a×b^2)/2 where a=tumor length (mm) and b=tumor width (mm). • Tumor Growth Delay=T−C where T is the median time (days) required for the treatment group tumors to reach a predetermined size, and C is the median time (days) for the control group tumors to reach the same size. Tumor-free survivors are excluded from this calculation, and are tabulated separately (Tumor Free).
(§4) [formula] • where Tumor Growth Delay is as previously defined and Td is tumor volume doubling time (days), estimated from the best fit straight line from a log-linear growth plot of the control group of tumors in exponential growth (100–800 mg range) • % T/C mass—The treatment and control groups are measured when the control group tumors reach approximately 700 to 1200 mg in size (median group). The median tumor weight of each group is determined (including zeros). The T/C value in percent is an indication of antitumor effectiveness. A T/C≦42% is considered significant antitumor activity. A T/C<10% is considered to indicate highly significant antitumor activity. • Body Weight Loss Nadir—A body weight loss nadir (mean of group) of greater than 20% or drug deaths greater than 20% are considered to indicate an excessively toxic dosage in single course trials. • Activity Rating—the Activity Rating is derived from the Log Kill according to the following table: […]

[2] = tested on: TAXOL SENSITIVE HUMAN COLON ADENOCARCINOMA #15/0; test: Early stage taxol sensitive human colon adenocarcinoma #15/0 xenograft (Table V); type: in vivo; conditions: total dose 420 mg/kg: 140 mg/kg/injection IV on days 3, 5, and 7; Balb/C SCID female mice
Source text: as §1, §2, §3, §4

Question: With `O=C(NS(=O)(=O)c1ccccc1)c1ccc(Cl)cc1Cl` [Example 110, N-[2,4-dichlorobenzoyl]phenylsulfonamide] as the compound, how does the “% BODY WT LOSS AT NADIR” value [1] read?
Answer: The value was “+5.6%”.

Question: And the “% T/C MASS” value [1]?
Answer: The value was 0%.

Question: What about the “ACTIVITY RATING” value [1] of the same compound?
Answer: The value was “++++ (HIGHLY ACTIVE >2.8)”.

Question: And the “DRUG DEATHS” value [1]?
Answer: Its value is 0/5.

Question: What about the “TUMOR FREE AT DAY 185” value [1] of the same compound?
Answer: Its value is 4/5.

Question: And the “GROWTH DELAY (DAYS)” value ([1]; one mouse)?
Answer: Its value is 60^b DAYS.

Question: And the “LOG KILL” value ([1]; one mouse)?
Answer: Its value is 7.2^b.

Question: And the “% BODY WT LOSS AT NADIR” value [2]?
Answer: Its value is 0%.

Question: What about the “% T/C MASS” value [2] of the same compound?
Answer: Its value is 0%.

Question: What about the “ACTIVITY RATING” value [2] of the same compound?
Answer: Its value is “++++ (HIGHLY ACTIVE >2.8)”.

Question: And the “DRUG DEATHS” value [2]?
Answer: The value was 0/5.

Question: And the “GROWTH DELAY” value [2]?
Answer: Its value is 33.5 days.

Question: And the “LOG KILL” value [2]?
Answer: Its value is 5.0.

Question: What about the “TUMOR FREE AT DAY 151” value [2] of the same compound?
Answer: Its value is 1/5.
